Data from US9150528B2, “Compound having detrusor muscle-contracting activity and urethral sphincter muscle-relaxing activity” (ONO PHARMACEUTICAL CO., LTD., priority 2009, dated 2015).

Legend:
[1] = Systemic clearance after intravenous administration; format: in vivo; conditions: plasma, cynomolgus monkey, 0.001 mg/mL/kg
Protocol: Equimolar sodium hydroxide and injectable distilled water were added to each of the test compounds to prepare a 1 mg/mL aqueous solution. The aqueous solution was diluted with physiological saline until the concentration reached 0.001 mg/mL and was rapidly administered at a dose of 0.001 mg/mL/kg to cynomolgus monkey through the cephalic vein. Via heparinized syringes, 2 min, 5 min, 15 min, 30 min, 1 hr, 2 hr, 4 hr, 6 hr, 8 hr and 24 hr after administration, blood was drawn from the cephalic vein (non-administered sites). After centrifugation, blood plasma was sampled and stored at −80° C. before pretreatment. The blood plasma was pretreated by mixing with acetonitrile and centrifuging to remove proteins followed by measurement by LC/MS/MS. Changes of concentration in blood plasma was analyzed using WinNonlin4.0.1 to evaluate the systemic clearance of the test compound.

[2] = tested on: normal rats; assay: Blood pressures and heart rates in normal rats; format: in vivo, rat; conditions: 0.3 mg/kg, oral
Protocol: The blood pressures and heart rates of female Wistar rats were measured in accordance with the following procedure. On the day of measurement, indwelling of catheters for blood pressure•heart rate measurement was carried out under anesthesia with ether. The back of the neck of each rat was incised; a feeding catheter (Atom Medical Corporation) filled with heparinized physiological saline was introduced from the back of the neck; the catheter was inserted into the common carotid artery; and the surgical incision was closed. The measurements were carried out in a Bollmann cage under the conscious state, and the evaluations were carried out after confirming that the individual parameters were stabilized. After confirming the stabilization of blood pressure and heart rate, the test compound which was prepared using injectable water containing equimolar NaOH was orally administered at a dose of 5 mL/kg.
The catheter drawn from the back of the neck was connected to a pressure transducer (DX-200, NIHON KOHDEN CORP.), and the blood pressures and heart rates were measured using an amplifier for pressure measurement (Gould Instrument). The blood pressures and heart rates were recorded using a recorder (LINEARCORDERWR3320, GRAPHTEC). For each individual, rates of increase and decrease in average blood pressure and heart rate before administration and 30, 60, 120, and 180 min after administration were calculated with respect to the values of each individual before administration. Changes in blood pressure and heart rate before and after administration of the test compound were evaluated.

[3] = tested on: urinary excretion dysfunction models; assay: Urinary excretion dysfunction models, maximal urinary flow rate; format: in vivo; conditions: 60 ng/kg/h continuous intravenous, cynomolgus monkey urinary excretion dysfunction model
From the text: Urinary excretion dysfunction models were constructed in accordance with the following procedure. After anesthesia of cynomolgus monkeys, the region from the suprapubic area to the abdominal area was shaved, followed by fixing in a dorsal position. The shaved region was disinfected and the four legs were fixed. Using an electrosurgical knife, the skin region from the suprapubic area to the umbilical area and the peritoneal membrane were sequentially incised, followed by damage to the pelvic nerve and removal of the uterus. After the surgical operation, viccillin-containing physiological saline was added dropwise to the incised area. The peritoneal membrane and skin of the incised area were sutured with silk threads and disinfected. Viccillin was administered for 7 consecutive days after surgery. Meloxicam was administered once daily for 7 consecutive days to manage pain in the perioperative period.
The cynomolgus monkeys were seated on monkey chairs, followed by retention of the hands and legs with strings. Injectable water was administered orally, and physiological saline and the test compound (60 ng/kg/h) were continuously administered intravenously to allow urination freely. The maximal urinary flow rate was measured using a urine weighing sensor.

Question: Which results are given for `C=CCC[C@](C)(O)C/C=C/[C@H]1CCC(=O)[C@@H]1CCSc1nc(C(=O)O)cs1` [Comparative compound D, 2-[(2-{(1R,2R)-2-[(1E,4S)-4-hydroxy-4-methyl-1,7-octadien-1-yl]-5-oxocyclopentyl}ethyl)thio]-1,3-thiazole-4-carboxylic acid]?
Answer: clearance [1]: 23.9 mL/min/kg; effect on the blood pressure [2]: tendency to decrease; increase in heart rate [2]: about 20%; improvement in maximal urinary flow rate over the vehicle group [3]: 36%
